This note sets out measurements from PubChem BioAssay AID330 (DTP/NCI, 2004).

Values joined by “and” are separate entries in the source; they are usually repeats but may differ in a detail not shown here. Equal values may be shown once. Toxic doses and inconclusive results are not listed.

In the experiment the test system is P388 leukemia ip, CD2F1 mice, survival T/C. Kind of experiment: NCI In Vivo Anticancer Drug Screen. Data for tumor model P388 Leukemia (intraperitoneal) in CD2F1 (CDF1) mice. To be noted: endpoint: median survival time, higher = longer survival. The gist of the method: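 Mice carrying the transplanted tumor received test compound or vehicle. Survival was recorded in each group, and the value is the treated-group measurement divided by that of the vehicle-treated control group.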

Setting [1] is: dose: 100.0 mg/kg/injection, schedule: Q04DX002 (ip), vehicle: saline with Tween-80.
Where [2] appears, read: dose: 50.0 mg/kg/injection, schedule: Q01DX005 (ip), vehicle: saline with Tween-80.
The mark [3] stands for this setting: dose: 100.0 mg/kg/injection, schedule: Q01DX005 (ip), vehicle: saline with Tween-80.
The mark [4] stands for this setting: dose: 60.0 mg/kg/injection, schedule: Q01DX005 (ip), vehicle: saline with Tween-80.
Setting [5] is: dose: 120.0 mg/kg/injection, schedule: Q01DX005 (ip), vehicle: saline with Tween-80.
Where [6] appears, read: dose: 240.0 mg/kg/injection, schedule: Q01DX005 (ip), vehicle: saline with Tween-80.
Setting [7] is: dose: 50.0 mg/kg/injection, schedule: Q01DX009 (ip), vehicle: saline.
[8] abbreviates: dose: 100.0 mg/kg/injection, schedule: Q01DX009 (ip), vehicle: saline.
[9] abbreviates: dose: 200.0 mg/kg/injection, schedule: Q01DX009 (ip), vehicle: saline.
Setting [10] is: dose: 200.0 mg/kg/injection, schedule: Q01DX005 (ip), vehicle: saline with Tween-80.
Where [11] appears, read: dose: 60.0 mg/kg/injection, schedule: Q01DX005 (ip), vehicle: saline.
Setting [12] is: dose: 120.0 mg/kg/injection, schedule: Q01DX005 (ip), vehicle: saline.
Where [13] appears, read: dose: 240.0 mg/kg/injection, schedule: Q01DX005 (ip), vehicle: saline.
Setting [14] is: dose: 25.0 mg/kg/injection, schedule: Q01DX009 (ip), vehicle: saline.
The mark [15] stands for this setting: dose: 25.0 mg/kg/injection, schedule: Q01DX009 (ip), vehicle: saline with Tween-80.
Setting [16] is: dose: 50.0 mg/kg/injection, schedule: Q01DX009 (ip), vehicle: saline with Tween-80.
[17] abbreviates: dose: 100.0 mg/kg/injection, schedule: Q01DX009 (ip), vehicle: saline with Tween-80.
Setting [18] is: dose: 200.0 mg/kg/injection, schedule: Q01DX009 (ip), vehicle: saline with Tween-80.
[19] abbreviates: dose: 50.0 mg/kg/injection, schedule: Q01DX005 (ip), vehicle: Klucel (hydroxypropylcellulose) (HPC).
Setting [20] is: dose: 100.0 mg/kg/injection, schedule: Q01DX005 (ip), vehicle: Klucel (hydroxypropylcellulose) (HPC).

Regarding `CN=C(N)N/N=C(/C)c1cc2ccccc2c2ccccc12`, the T/C is, setting by setting: (dose: 25.0 mg/kg/injection, schedule: Q04DX002 (ip), vehicle: saline with Tween-80) 95 % of control; (dose: 50.0 mg/kg/injection, schedule: Q04DX002 (ip), vehicle: saline with Tween-80) 101 % of control; under setting [1], 102 % of control.

With `CCOC(=O)C1=C(C)O/C(=C\c2cccc(C(F)(F)F)c2)C1=O`, the T/C is, setting by setting: under setting [2], 108 % of control; under setting [3], 109 % of control.

Take `COc1cc2c(c(OC)c1OC)-c1ccc(SC)c(=O)cc1[C@@H](NC(=O)Oc1ccccc1)CC2`: the T/C (dose: 5.0 mg/kg/injection, schedule: Q01DX009 (ip), vehicle: Klucel (hydroxypropylcellulose) (HPC)) is 164 % of control.

Consider `O=C(c1ccccc1)C(N=Nc1ccccc1)(c1ccccc1)c1ccccc1`, for which the T/C runs as follows: under setting [4], 101 % of control; under setting [5], 118 % of control; under setting [6], 100 % of control.

Regarding `Cc1cccc(NC(=O)NC2CCCC(C)C2)c1` (stereo unspecified), the T/C is 98 % of control under setting [7], 93 % of control under setting [8] and 91 % of control under setting [9].

Regarding `CCOC(=O)C1=CCC(n2cc(F)c(=O)[nH]c2=O)O1` (stereo unspecified), the T/C is 98 % of control under setting [7]; 101 % of control under setting [8]; 99 % of control under setting [9]; 110 % of control (dose: 400.0 mg/kg/injection, schedule: Q01DX009 (ip), vehicle: saline).

Regarding `CSCCC(NC(=O)C(Cc1ccccc1)NC(=O)CNC(=O)CNC(=O)C(N)Cc1ccc(O)cc1)C(=O)O` (stereo unspecified), the T/C by setting is: under setting [2], 101 % of control; under setting [3], 92 % of control; under setting [10], 92 % of control.

For the compound `O=C1C(c2[nH]c3cccc(Cl)c3c2O)=Nc2cccc(Cl)c21`, the T/C runs as follows: under setting [2], 100 % of control; under setting [3], 104 % of control; under setting [10], 109 % of control.

With `CCOP(=O)(OCC)C1CCCN2CCc3cc(OC)c(OC)cc3C12` (stereo unspecified), the T/C runs as follows: under setting [7], 91 % of control; under setting [8], 98 % of control; under setting [9], 95 % of control.

Consider `BrCC1CN=C(c2ccccc2)O1` (stereo unspecified), for which the T/C is 104 % of control under setting [11], 101 % of control under setting [12] and 101 % of control under setting [13].

Take `C1COCCCOCCCOCCCC2(CCCOCCCOC1)OCCO2`: the T/C is, setting by setting: under setting [2], 102 % of control; under setting [3], 102 % of control; under setting [10], 101 % of control.

`CC(=O)Nc1nccs1.CC(=O)Nc1nccs1.[Cl][Pt][Cl]`: the T/C reads like this: under setting [1], 93 % of control; (dose: 200.0 mg/kg/injection, schedule: Q04DX002 (ip), vehicle: saline with Tween-80) 91 % of control.

With `CC(=O)NS(=O)(=O)c1ccc(N=NC2=C(O)C(c3ccccc3)N(c3ccccc3)C2=O)cc1` (stereo unspecified), the T/C is 96 % of control under setting [4] and 91 % of control under setting [5].

`COB(C1CCCCC1)C1CCCCC1`: the T/C by setting is: (dose: 50.0 mg/kg/injection, schedule: Q01DX009 (ip), vehicle: acetone) 100 % of control; (dose: 100.0 mg/kg/injection, schedule: Q01DX009 (ip), vehicle: acetone) 105 % of control; (dose: 200.0 mg/kg/injection, schedule: Q01DX009 (ip), vehicle: acetone) 105 % of control.

On to `NC(N)=N/N=C/c1ccc(Cl)cc1Cl`, for which the T/C is 104 % of control under setting [14] and 106 % of control under setting [7].

On to `COc1cc(C(=O)CC(=O)CCC(=O)Nc2ccc(Cl)cc2)ccc1O`, for which the T/C reads like this: under setting [4], 104 % of control; under setting [5], 103 % of control; under setting [6], 98 % of control.

Consider `C[C@H](N)C(O)/C=C/c1ccccc1` (stereo partly specified), for which the T/C (dose: 10.0 mg/kg/injection, schedule: Q01DX005 (ip), vehicle: saline) is 103 % of control; the T/C (dose: 20.0 mg/kg/injection, schedule: Q01DX005 (ip), vehicle: saline) is 93 % of control; the T/C (dose: 40.0 mg/kg/injection, schedule: Q01DX005 (ip), vehicle: saline) was 97 % of control.

As for `CN1C(=O)C(CCCN=C(N)N)NC1=S` (stereo unspecified), the T/C runs as follows: under setting [11], 98 % of control; under setting [12], 111 % of control; under setting [13], 104 % of control.

For the compound `Nc1nc(N)c(CCCOc2ccc(C(=O)O)cc2)c(N)n1`, the T/C runs as follows: (dose: 60.0 mg/kg/injection, schedule: Q01DX005 (ip), vehicle: Klucel (hydroxypropylcellulose) (HPC)) 93 % of control; (dose: 120.0 mg/kg/injection, schedule: Q01DX005 (ip), vehicle: Klucel (hydroxypropylcellulose) (HPC)) 97 % of control.

As to `CC(C)N1CSC(=S)N(Cc2ccccc2)C1`, the T/C is, setting by setting: under setting [15], 107 % of control; under setting [16], 97 % of control and 98 % of control; under setting [17], 93 % of control and 98 % of control; under setting [18], 89 % of control.

In the case of `O=C(NC1CCCN1C(=O)/C=C/c1ccccc1)NC1CCCN1C(=O)/C=C/c1ccccc1` (stereo unspecified), the T/C is, setting by setting: under setting [4], 100 % of control; under setting [5], 88 % of control; under setting [6], 101 % of control.

With `c1ccc2c(c1)Sc1ccccc1N2CCCN1CCCC1`, the T/C was 105 % of control (dose: 12.5 mg/kg/injection, schedule: Q01DX009 (ip), vehicle: saline); 104 % of control under setting [14]; 111 % of control (dose: 25.0 mg/kg/injection, schedule: Q04DX002 (ip), vehicle: saline); 112 % of control and 120 % of control under setting [7]; 111 % of control (dose: 50.0 mg/kg/injection, schedule: Q04DX002 (ip), vehicle: saline); 101 % of control (dose: 100.0 mg/kg/injection, schedule: Q04DX002 (ip), vehicle: saline).

Regarding `ON=C(C1CC1)C1CC1`, the T/C by setting is: under setting [15], 95 % of control; under setting [16], 101 % of control; under setting [17], 104 % of control; under setting [18], 91 % of control.

Regarding `CCC(C)n1c(C)nc2ncn(-c3ccccc3)c2c1=O` (stereo unspecified), the T/C was 100 % of control under setting [19]; 103 % of control under setting [20]; 105 % of control (dose: 200.0 mg/kg/injection, schedule: Q01DX005 (ip), vehicle: Klucel (hydroxypropylcellulose) (HPC)).

For `COc1cc(CC(O)c2cc(OC)c(OC)c(OC)c2)cc(OC)c1OC` (stereo unspecified), the T/C by setting is: (dose: 31.25 mg/kg/injection, schedule: Q01DX009 (ip), vehicle: saline + Tween-80 + alcohol) 102 % of control; (dose: 62.5 mg/kg/injection, schedule: Q01DX009 (ip), vehicle: saline + Tween-80 + alcohol) 102 % of control; (dose: 125.0 mg/kg/injection, schedule: Q01DX009 (ip), vehicle: saline + Tween-80 + alcohol) 100 % of control; (dose: 250.0 mg/kg/injection, schedule: Q01DX009 (ip), vehicle: saline + Tween-80 + alcohol) 91 % of control.

In the case of `Cn1cnc2c(=O)[nH]c(N)nc21`, the T/C under setting [2] was 102 % of control, the T/C under setting [3] was 107 % of control and the T/C under setting [10] is 107 % of control.

As for `O=[N+]([O-])c1c(Sc2ccccc2)ncnc1Sc1ccccc1`, the T/C is 100 % of control (dose: 12.5 mg/kg/injection, schedule: Q01DX009 (ip), vehicle: saline with Tween-80); 100 % of control under setting [15]; 91 % of control under setting [16]; 95 % of control under setting [7].

On to `Cc1ccc(-c2cc(=O)c3cccc(CC(=O)O)c3o2)cc1`, for which the T/C (dose: 25.0 mg/kg/injection, schedule: Q01DX005 (ip), vehicle: Klucel (hydroxypropylcellulose) (HPC)) was 112 % of control and 89 % of control; the T/C under setting [19] is 104 % of control and 118 % of control; the T/C under setting [20] was 119 % of control and 90 % of control.

In the case of `Cc1c(O)c2ccccc2c2c1sc(NCCCN(CCO)CCO)[n+]2C`, the T/C runs as follows: (dose: 7.5 mg/kg/injection, schedule: Q01DX005 (ip), vehicle: saline) 109 % of control; (dose: 15.0 mg/kg/injection, schedule: Q01DX005 (ip), vehicle: saline) 107 % of control; (dose: 30.0 mg/kg/injection, schedule: Q01DX005 (ip), vehicle: saline) 110 % of control.

For the compound `CC1(C)Cc2nn3c(c2C(=O)O1)CC(c1ccccc1)c1ccccc1-3` (stereo unspecified), the T/C was 90 % of control (dose: 100.0 mg/kg/injection, schedule: Q01DX001 (ip), vehicle: saline with Tween-80); 89 % of control (dose: 200.0 mg/kg/injection, schedule: Q01DX001 (ip), vehicle: saline with Tween-80); 96 % of control (dose: 400.0 mg/kg/injection, schedule: Q01DX001 (ip), vehicle: saline with Tween-80).
